Measured values: ChEMBL document CHEMBL1133082, “Adenosine kinase inhibitors. 2. Synthesis, enzyme inhibition, and antiseizure activity of diaryltubercidin analogues” (J Med Chem, 2000)

Key:
Adenosine kinase = Adenosine kinase (Homo sapiens, UniProt P55263); assay: Inhibition of recombinant human adenosine kinase
Rattus norvegicus [1] = assay: Tested for inhibition of MES-induced seizures in rat after ip administration of 5 mg/kg; assay type: functional; conditions: route intraperitoneal
Rattus norvegicus [2] = assay: Intraperitoneal effective dose required for inhibition of MES-induced seizures in rat; assay type: functional; conditions: ip

Adenosine kinase, sequence (P55263 whole entry): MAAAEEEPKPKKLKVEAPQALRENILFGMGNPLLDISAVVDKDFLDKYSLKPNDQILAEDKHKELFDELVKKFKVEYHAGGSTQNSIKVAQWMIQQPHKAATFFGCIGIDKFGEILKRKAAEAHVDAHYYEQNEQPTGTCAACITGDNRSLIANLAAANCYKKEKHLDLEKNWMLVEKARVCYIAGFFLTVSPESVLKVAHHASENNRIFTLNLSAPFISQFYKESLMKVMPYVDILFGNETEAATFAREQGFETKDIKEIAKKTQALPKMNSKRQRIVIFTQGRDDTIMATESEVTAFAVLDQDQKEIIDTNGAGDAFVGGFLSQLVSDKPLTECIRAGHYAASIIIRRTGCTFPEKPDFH

| SMILES | IC50 (Adenosine kinase) | inhibition in vivo at 5 mg/kg (Rattus norvegicus [1]) | ED50 (Rattus norvegicus [2]) |
| --- | --- | --- | --- |
| C[C@H]1O[C@@H](n2cc(I)c3c(NCc4ccccc4)ncnc32)[C@H](O)[C@@H]1O | 800 nM |  |  |
| OC[C@H]1O[C@@H](n2ccc3c(Nc4ccccc4)ncnc32)[C@H](O)[C@@H]1O | 1250 nM |  |  |
| OC[C@H]1O[C@@H](n2cc(-c3ccccc3)c3c(Nc4ccccc4)ncnc32)C[C@@H]1O | 300 nM |  |  |
| C[C@H]1O[C@@H](n2cc(-c3ccccc3)c3c(Nc4ccc(F)cc4)ncnc32)[C@H](O)[C@@H]1O |  | 73% |  |

Further lines, with some results ahead:

| IC50 (Adenosine kinase) | SMILES | inhibition in vivo at 5 mg/kg (Rattus norvegicus [1]) | ED50 (Rattus norvegicus [2]) |
| --- | --- | --- | --- |
| 30 nM | C[C@H]1O[C@@H](n2cc(-c3ccccc3)c3c(NCc4ccccc4)ncnc32)[C@H](O)[C@@H]1O |  |  |
| 14 nM | C[C@H]1O[C@@H](n2cc(-c3ccccc3)c3c(Nc4ccc(C#N)cc4)ncnc32)[C@H](O)[C@@H]1O | 87% |  |
| 6 nM | COc1ccc(Nc2ncnc3c2c(-c2ccccc2)cn3[C@@H]2O[C@H](C)[C@@H](O)[C@H]2O)cc1 | 93% | 1 mg/kg |
| 1 nM | C[C@H]1O[C@@H](n2cc(-c3ccccc3)c3c(Nc4ccc(O)cc4)ncnc32)[C@H](O)[C@@H]1O | 35% | 5.8 mg/kg |
